The results in this text go back to patent US7652020B2, “Compounds for the treatment of inflammatory disorders” (Schering Corporation, priority 2004, dated 2010).

pKi: −log10 of the molar value.

For this test, the target named is T1, purified catalytic domain of recombinant human TACE (rhTACEc) (Homo sapiens, UniProt P78536, N452Q/S266A).
T1 construct: Residue 215 to 477 with two mutation (S266A and N452Q) and a 6×His tail; 6xHis (C); made in house; host or cells: baculovirus/Hi5 insect cells
The experiment in a line: TACE kinetic assay: cleavage of internally quenched peptide substrate SPDL-3, fluorescence. The test is classed as biochemical. The conditions noted are these: TACE inhibitory activity, class symbols; read-out: Ki.

T1 sequence (P78536 215-477 S266A/N452Q): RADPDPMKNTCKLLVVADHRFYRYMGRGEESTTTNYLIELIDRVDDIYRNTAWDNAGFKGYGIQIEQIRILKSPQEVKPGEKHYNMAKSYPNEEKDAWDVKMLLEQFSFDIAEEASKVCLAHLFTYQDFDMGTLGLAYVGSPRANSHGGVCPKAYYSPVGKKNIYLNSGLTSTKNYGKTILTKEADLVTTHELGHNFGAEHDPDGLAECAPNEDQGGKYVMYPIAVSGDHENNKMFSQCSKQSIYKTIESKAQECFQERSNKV

Turning to `Cc1nnc([C@H](O)[C@@H](O)C(=O)NCC2CCN(c3ccc(F)cc3C#N)CC2)n1C` [Compound 2399], the negative-log Ki (pKi) was < 6.00.

As for `Cc1cnc([C@H](O)[C@@H](O)C(=O)NCC2CCN(c3ccc(F)cc3C#N)CC2)n1C` [Compound 2400], the pKi was 6.00 to 7.00.

On to `Cn1c(-c2ccccc2)cnc1[C@H](O)[C@@H](O)C(=O)NCC1CCN(c2ccc(F)cc2C#N)CC1` [Compound 2402], for which the pKi was < 6.00.

With `O=C([C@H](O)[C@@H](O)c1cncc(-c2ccc(-c3ccccc3)cc2)n1)N1Cc2ccccc2C1` [Compound 2403], the pKi was < 6.00.

With `C[C@@H](NC(=O)[C@H](O)[C@@H](O)C(=O)N1CCCCC1)c1ccc(-n2cccn2)cc1` [Compound 2408], the pKi was 7.00 to 7.70.

Consider `C[C@@H]1CCC[C@H](C)N1C(=O)[C@H](O)[C@@H](O)C(=O)N[C@H](C)c1ccc(-n2cccn2)cc1` [Compound 2409], for which the negative-log Ki (pKi) is 6.00 to 7.00.

Turning to `C[C@@H](NC(=O)[C@H](O)[C@@H](O)C(=O)N1CCCCC1c1ccccc1)c1ccc(-n2cccn2)cc1` (stereo partly shown) [Compound 2410], the pKi is > 7.70.

Take `C[C@@H](NC(=O)[C@](C)(O)[C@@H](O)C(=O)N1CCCCC1c1ccccc1)c1ccc(-n2cccn2)cc1` (stereo partly shown) [Compound 2411]: the negative-log Ki (pKi) is < 6.00.

Consider `C[C@@H](NC(=O)[C@H](O)[C@@H](O)C(=O)N1CCCC(C)(C)C1)c1ccc(-n2cccn2)cc1` [Compound 2412], for which the negative-log Ki (pKi) was 6.00 to 7.00.

In the case of `C[C@@H](NC(=O)[C@H](O)[C@@H](O)C(=O)N1CCNCC1c1ccccc1)c1ccc(-n2cccn2)cc1` (stereo partly shown) [Compound 2414], the pKi is 7.00 to 7.70.

For `C[C@@H](NC(=O)[C@H](O)[C@@H](O)C(=O)N1CCCCC1c1cccc(Cl)c1)c1ccc(-n2cccn2)cc1` (stereo partly shown) [Compound 2415], the negative logarithm of the Ki (pKi) was 7.00 to 7.70.

Regarding `C[C@@H](NC(=O)[C@H](O)[C@@H](O)C(=O)N1CCCCC1c1nccs1)c1ccc(-n2cccn2)cc1` (stereo partly shown) [Compound 2416], the pKi is 7.00 to 7.70.

On to `C[C@@H](NC(=O)[C@H](O)[C@@H](O)C(=O)N1CCCCC1c1csc(N)n1)c1ccc(-n2cccn2)cc1` (stereo partly shown) [Compound 2417], for which the pKi was 7.00 to 7.70.

Take `C[C@@H](NC(=O)[C@H](O)[C@@H](O)C(=O)N1CCCCC1c1ccc(Cl)cc1)c1ccc(-n2cccn2)cc1` (stereo partly shown) [Compound 2418]: the pKi is 7.00 to 7.70.

With `C[C@@H](NC(=O)[C@H](O)[C@@H](O)C(=O)N1CC2CC1CN2c1ccc(Cl)cc1)c1ccc(-n2cccn2)cc1` (stereo partly shown) [Compound 2419], the pKi was 6.00 to 7.00.

Turning to `C[C@@H](NC(=O)[C@H](O)[C@@H](O)C(=O)N1CCN2CCC[C@H]2C1)c1ccc(-n2cccn2)cc1` [Compound 2420], the pKi is 6.00 to 7.00.

As for `C[C@@H](NC(=O)[C@H](O)[C@@H](O)C(=O)N1CCCc2ccccc21)c1ccc(-n2cccn2)cc1` [Compound 2421], the pKi is 6.00 to 7.00.

For the molecule `C[C@@H](NC(=O)[C@H](O)[C@@H](O)C(=O)N1CCOCC1)c1ccc(-n2cccn2)cc1` [Compound 2422], the negative logarithm of the Ki (pKi) is 7.00 to 7.70.

Regarding `C[C@@H](NC(=O)[C@H](O)[C@@H](O)C(=O)N1CCNCC1)c1ccc(-n2cccn2)cc1` [Compound 2423], the pKi was 6.00 to 7.00.

Consider `C[C@@H](NC(=O)[C@H](O)[C@@H](O)C(=O)N1C[C@H]2CNC[C@H]2C1)c1ccc(-n2cccn2)cc1` [Compound 2424], for which the negative-log Ki (pKi) was 6.00 to 7.00.

For the molecule `C[C@@H](NC(=O)[C@H](O)[C@@H](O)C(=O)N1CCN(c2ccccc2)C(=O)C1)c1ccc(-n2cccn2)cc1` [Compound 2425], the negative logarithm of the Ki (pKi) was 6.00 to 7.00.

For the molecule `C[C@@H](NC(=O)[C@H](O)[C@@H](O)C(=O)N1CCc2ccccc2C1)c1ccc(-n2cccn2)cc1` [Compound 2438], the pKi is > 7.70.

For the molecule `C[C@@H](NC(=O)[C@H](O)[C@@H](O)C(=O)N1CCc2ccc(F)cc2C1)c1ccc(-n2cccn2)cc1` [Compound 2439], the negative logarithm of the Ki (pKi) is > 7.70.

`C[C@@H](NC(=O)[C@](C)(O)[C@@H](O)C(=O)N1CCc2ccc(F)cc2C1)c1ccc(-n2cccn2)cc1` [Compound 2440]: the pKi is 7.00 to 7.70.

For the molecule `C[C@@H](NC(=O)[C@H](O)[C@@H](O)C(=O)N1CCc2ccccc21)c1ccc(-n2cccn2)cc1` [Compound 2441], the negative logarithm of the Ki (pKi) was 7.00 to 7.70.

Take `COc1cc2c(cc1OC)C(c1ccccc1)N(C(=O)[C@H](O)[C@@H](O)C(=O)N[C@H](C)c1ccc(-n3cccn3)cc1)CC2` (stereo partly shown) [Compound 2442]: the pKi was > 7.70.

Turning to `C[C@@H](NC(=O)[C@H](O)[C@@H](O)C(=O)N1CCc2cc(Cl)c(Cl)cc2C1c1ccccc1)c1ccc(-n2cccn2)cc1` (stereo partly shown) [Compound 2443], the pKi is > 7.70.

For the molecule `C[C@@H](NC(=O)[C@H](O)[C@@H](O)C(=O)N1CCc2cc(Cl)ccc2C1c1ccccc1)c1ccc(-n2cccn2)cc1` (stereo partly shown) [Compound 2444], the pKi was > 7.70.

In the case of `CNc1nc(C2c3ccccc3CN2C(=O)[C@H](O)[C@@H](O)C(=O)N[C@H](C)c2ccc(-n3cccn3)cc2)cs1` (stereo partly shown) [Compound 2445], the negative logarithm of the Ki (pKi) was > 7.70.

As for `Cc1cccc2c1CN(C(=O)[C@H](O)[C@@](C)(O)C(=O)N[C@H](C)c1ccc(-n3cccn3)cc1)C2` [Compound 2446], the pKi is 7.00 to 7.70.

`N#Cc1cc(F)ccc1N1CCC(CNC(=O)[C@H](O)[C@@H](N)C(=O)N2CCCC2)CC1` [Compound 2456]: the pKi is < 6.00.

As to `N#Cc1cc(F)ccc1N1CCC(CNC(=O)[C@H](N)[C@@H](O)C(=O)N2CCCC2)CC1` [Compound 2460], the negative logarithm of the Ki (pKi) was < 6.00.

Regarding `C[C@H](c1ccc(-n2cccn2)cc1)N1CCO[C@H]([C@@H](O)C(=O)N2Cc3ccccc3C2)C1=O` [Compound 2474], the pKi is < 6.00.

Consider `CO[C@@H](C(=O)NCc1ccc(-c2ccc(F)cc2OCCC(C)(C)C)cc1)[C@@H](O)C(=O)N1Cc2cccnc2C1` [Compound 2475], for which the negative-log Ki (pKi) was 7.00 to 7.70.

Take `CO[C@@H](C(=O)NCc1ccc(-c2ccc(F)cc2OCCC2CCCCC2)cc1)[C@@H](O)C(=O)N1Cc2cccnc2C1` [Compound 2476]: the pKi is 7.00 to 7.70.

As for `CCOc1cc(F)ccc1-c1ccc(CNC(=O)[C@H](OC)[C@@H](O)C(=O)N2Cc3cccnc3C2)cc1` [Compound 2477], the negative-log Ki (pKi) was 6.00 to 7.00.

For the molecule `C[C@H](c1ccc(-n2cccn2)cc1)N1CCO[C@H]([C@@H](O)C(=O)N2CCCC2c2ccccc2)C1=O` (stereo partly shown) [Compound 2478], the negative logarithm of the Ki (pKi) was < 6.00.

For the molecule `CC(c1cccc(Cl)c1)N(C)C(=O)[C@H](O)[C@@H](O)C(=O)N[C@H](C)c1ccc(-n2cccn2)cc1` (stereo partly shown) [Compound 2480], the pKi is 7.00 to 7.70.

With `CCN(C(=O)[C@H](O)[C@@H](O)C(=O)N[C@H](C)c1ccc(-n2cccn2)cc1)C(C)c1cccc(Cl)c1` (stereo partly shown) [Compound 2481], the pKi is 6.00 to 7.00.

As for `CC(C)CN(C(=O)[C@H](O)[C@@H](O)C(=O)N[C@H](C)c1ccc(-n2cccn2)cc1)C(C)c1cccc(Cl)c1` (stereo partly shown) [Compound 2482], the pKi is < 6.00.

Consider `CC(c1cccc(Cl)c1)N(C(=O)[C@H](O)[C@@H](O)C(=O)N[C@H](C)c1ccc(-n2cccn2)cc1)C1CC1` (stereo partly shown) [Compound 2483], for which the negative logarithm of the Ki (pKi) was < 6.00.

With `CC(c1cccc(Cl)c1)N(CC1CC1)C(=O)[C@H](O)[C@@H](O)C(=O)N[C@H](C)c1ccc(-n2cccn2)cc1` (stereo partly shown) [Compound 2485], the negative-log Ki (pKi) was < 6.00.

Take `CCCN(C(=O)[C@H](O)[C@@H](O)C(=O)N[C@H](C)c1ccc(-n2cccn2)cc1)C(C)c1cccc(Cl)c1` (stereo partly shown) [Compound 2486]: the negative-log Ki (pKi) is < 6.00.

`CCC(c1cccc(Cl)c1)N(C)C(=O)[C@H](O)[C@@H](O)C(=O)N[C@H](C)c1ccc(-n2cccn2)cc1` (stereo partly shown) [Compound 2487]: the negative-log Ki (pKi) is 7.00 to 7.70.

Regarding `C[C@@H](NC(=O)[C@H](O)[C@@H](O)C(=O)N(C)C1Cc2ccccc2C1)c1ccc(-n2cccn2)cc1` [Compound 2489], the pKi is 7.00 to 7.70.

As to `C[C@@H](NC(=O)[C@H](O)[C@@H](O)C(=O)N1CCC(=O)N1c1cccc(Cl)c1)c1ccc(-n2cccn2)cc1` [Compound 2494], the negative logarithm of the Ki (pKi) was 6.00 to 7.00.

Regarding `C[C@@H](NC(=O)[C@H](O)[C@@H](O)C(=O)N1CCCN1c1cccc(Cl)c1)c1ccc(-n2cccn2)cc1` [Compound 2495], the pKi was 6.00 to 7.00.

As for `C[C@@H](NC(=O)[C@H](O)[C@@H](O)C(=O)N1CCCN1c1ccccc1)c1ccc(-n2cccn2)cc1` [Compound 2496], the pKi is 6.00 to 7.00.

Regarding `C[C@@H](NC(=O)[C@H](O)[C@@H](O)C(=O)N1CCC[C@@H]1c1csc2nccn12)c1ccc(-n2cccn2)cc1` [Compound 2506], the negative logarithm of the Ki (pKi) was > 7.70.

On to `C[C@@H](NC(=O)[C@H](O)[C@@H](O)C(=O)N1CCC[C@@H]1c1cn2ccccc2n1)c1ccc(-n2cccn2)cc1` [Compound 2507], for which the pKi is > 7.70.

`CCOC(=O)c1cccn2cc([C@H]3CCCN3C(=O)[C@H](O)[C@@H](O)C(=O)N[C@H](C)c3ccc(-n4cccn4)cc3)nc12` [Compound 2508]: the negative logarithm of the Ki (pKi) is 7.00 to 7.70.

In the case of `CNc1nc([C@H]2CC(F)(F)CN2C(=O)[C@H](O)[C@@H](O)C(=O)N[C@H](C)c2ccc(-n3cccn3)cc2)cs1` [Compound 2567], the pKi is > 7.70.

As to `CC#CCOc1cc([C@@H](C)NC(=O)[C@H](O)[C@@H](O)C(=O)N2CCC[C@@H]2c2cccc(Cl)c2)ccc1-n1cccn1` [Compound 2571], the pKi is > 7.70.

For `CC#CCOc1cc([C@@H](C)NC(=O)[C@H](O)[C@@H](O)C(=O)N2CC=CC2c2cccc(Cl)c2)ccc1-n1cccn1` (stereo partly shown) [Compound 2572], the pKi is > 7.70.

In the case of `CC(=O)Nc1nc([C@H]2CCCN2C(=O)[C@H](O)[C@@H](O)C(=O)N[C@H](C)c2ccc(-n3cccn3)cc2)cs1` [Compound 2579], the pKi is > 7.70.

Take `C[C@@H](NC(=O)[C@H](O)[C@@H](O)C(=O)N1CCC[C@@H]1c1csc(NS(C)(=O)=O)n1)c1ccc(-n2cccn2)cc1` [Compound 2581]: the pKi was > 7.70.

For `C[C@@H](NC(=O)[C@H](O)[C@@H](O)C(=O)N1CCC[C@@H]1c1csc(N(C)S(C)(=O)=O)n1)c1ccc(-n2cccn2)cc1` [Compound 2582], the negative-log Ki (pKi) was > 7.70.

In the case of `C[C@@H](NC(=O)[C@H](O)[C@@H](O)C(=O)N1CCc2ccccc2[C@@H]1c1csc(N)n1)c1ccc(-n2cccn2)cc1` [Compound 2585], the pKi is > 7.70.

As a reminder, the pKi is −log10 of the Ki, conventionally taken in molar units.
